Experiments:
[1] = tested on: growing lambs; experiment: body weight gain and feed efficiency of growing lambs (Examples 9-11); type: in vivo, lambs (sheep)
Protocol: A test was conducted to determine if feeding L-phenylalanine, 2,2,2-trichloroethyl ester to growing lambs was effective in improving growth and feed efficiency. Wether and ewe lambs were divided into groups of 30 lambs each. They were acclimated to their pens for 2 weeks prior to treatment.
The feed supplied to the animals had the following composition
The test compound in an amount of 0.0055% (50 g/ton) was admixed with the above feed composition.
Body weights and feed consumption were recorded at 0, 2, 4 and 6 weeks. Feed efficiencies were calculated.
The test procedure of Example 9 was followed to test the growth effect and feed efficiency of glycine 2,2,2-trichloroethyl ester on growing lambs. The feed composition of Example 9 was used but contained glycine 2,2,2-trichloroethyl ester in an amount of 0.0044% (40 g/ton). There were 44 lambs in the control group receiving the feed composition without additive and 42 lambs receiving the feed composition containing the amino acid ester.
The test procedure of Example 9 was followed to test the growth effect and feed efficiency of L-phenylalanine 2,2,2-trichloroethyl ester on growing lambs. The feed composition of Example 9 was used but contained 0.0088% (80 g/ton) of this amino acid ester. There were 59 lambs in the control group fed the feed without additive and 58 lambs in the group fed the feed composition containing the test compound.

[2] = tested on: volatile fatty acid concentrations in the in vitro rumen fermentation; experiment: in vitro rumen fermentation, volatile fatty acids, high concentrate substrate, alfalfa hay:concentrate 1:3 (Examples 4 and 7); design: species or system sheep; settings: for Acetic acid / Acetic:propionic / Butyric acid / Propionic acid / Total acids: hay:concentrate 1:3
Protocol: (§1) A one gram sample of substrate ground through a 1 mm screen is weighed into 100 ml. lipless beakers equipped with gas-release valves. The substrate consists of alfalfa hay containing approximately 16% protein and a concentrate containing ground corn 60.7%, alfalfa meal 17.5%, molasses 10.0%, soybean meal 5.3%, wheat bran 5.0%, trace mineralized salt 1.0%, limestone 0.5% and Vitamin D 300,000 I.U./ton, mixed in the proportion 3:1. The experimental composition is added to the substrate. 25 ml. of filtered rumen fluid obtained from fasted sheep maintained on feed the same as the above mentioned substrate and 25 ml. of McDougal's buffer solution serve as the inoculum. The buffer solution is as follows:
(§2) The fermentation mixture is flushed with carbon dioxide and the vessel is capped with a gas release valve. The fermentation vessel (beaker) is placed in a water bath and incubated at 39° C.±1° for six hours. The sample is mixed every hour by shaking the beaker.
(§3) At the end of the 6-hour fermentation period the sample is strained through 4 layers of cheesecloth into a sample bottle containing 1 ml. saturated solution of mercuric chloride. The sample is frozen immediately until analyzed for the volatile fatty acids (VFA) (mg/100 ml.). Prior to analysis, each sample is acidified with 30% phosphoric acid and then analyzed by gas chromatography using a column containing 5% nonylphenoxypolyoxyethylene ethanol plus 0.5% phosphoric acid on 100-120 mesh Gas Chrom S. The acids determined are acetic, propionic, butyric, isobutyric, valeric and isovaleric acids. Total VFA is considered as the addition of these acids. The ratio of acetic: propionic (A:P) is obtained by dividing the concentration of acetic acid by that of propionic acid.
The procedure is described in Example 3. In this example, however, the substrate consisted of alfalfa hay and concentrate in the ratio of 1:3 and inoculum was obtained from sheep fed alfalfa and concentrate in the ratio of 1:3. The concentrate (Fit-N-Fresh) is commercially available from Agway, Inc. and contains grain products, plant protein products, processed grain by-products, cane molasses, minerals, vitamins and a preservative.
The 2,2,2-trichloroethyl ester of glycine was tested in vitro in a manner similar to that described in Example 4.

[3] = tested on: volatile fatty acid concentrations in the in vitro rumen fermentation; experiment: in vitro rumen fermentation, volatile fatty acids, alfalfa hay:concentrate 3:1 (Examples 3 and 12); design: species or system sheep; settings: for Acetic acid / Acetic:propionic / Butyric acid / Propionic acid / Total acids: 6 h, 39° C.
Protocol: as §1, §2, §3
The effect of various compounds alone on the volatile fatty acid concentrations was determined by the procedure of Example 3. […] A direct comparison between phenylalanine and phenylalanine trichloroethyl ester is provided.

For `Br.N[C@@H](Cc1ccccc1)C(=O)OCC(Cl)(Cl)Cl` [L-Phenylalanine 2,2,2-trichloroethyl ester, hydrobromide], the Body weight gain ([1]; 0.0055% (50 g/ton) in feed, 0-2 wks., control 2.47) was 2.97 kg, the Body weight gain ([1]; 0.0055% (50 g/ton) in feed, 0-4 wks., control 5.80) was 5.82 kg and the Feed efficiency ([1]; 0.0055% (50 g/ton) in feed, 0-6 wks., control 0.190) was 0.196 gain/unit of feed. The Body weight gain ([1]; 0.0055% (50 g/ton) in feed, 0-6 wks., control 8.51) was 9.08 kg, the “effect on feed efficiency (in words)” value ([1]; 0.0055% (50 g/ton) in the feed) was “improving feed efficiency” and the “effect on gains (in words)” value ([1]; 0.0055% (50 g/ton) in the feed) was “effective in increasing gains”. It also gave a Weight gain ([1]; 0.0088% (80 g/ton) in feed, 0-2 wks, control 1.50) of 1.49 kg, a Weight gain ([1]; 0.0088% (80 g/ton) in feed, 0-4 wks, control 4.44) of 4.63 kg and a Feed efficiency ([1]; 0.0088% (80 g/ton) in feed, 0-6 wks, control 0.160) of 0.168 gain/feed. For the same compound, the Weight gain ([1]; 0.0088% (80 g/ton) in feed, 0-6 wks, control 7.56) was 7.81 kg, the Acetic acid ([2]; 0.02 mg/ml) was 80 % of control and the “Acetic:propionic” value ([2]; 0.02 mg/ml) was 69 % of control. The Butyric acid ([2]; 0.02 mg/ml) was 114 % of control, the Propionic acid ([2]; 0.02 mg/ml) was 116 % of control and the Total acids ([2]; 0.02 mg/ml) was 95 % of control. For the same compound, the Acetic acid ([2]; 0.1 mg/ml) was 76 % of control, the “Acetic:propionic” value ([2]; 0.1 mg/ml) was 66 % of control and the Butyric acid ([2]; 0.1 mg/ml) was 113 % of control. For the same compound, the Propionic acid ([2]; 0.1 mg/ml) was 115 % of control, the Total acids ([2]; 0.1 mg/ml) was 92 % of control and the Acetic acid ([2]; 0.2 mg/ml) was 76 % of control. For the same compound, the “Acetic:propionic” value ([2]; 0.2 mg/ml) was 65 % of control, the Butyric acid ([2]; 0.2 mg/ml) was 113 % of control and the Propionic acid ([2]; 0.2 mg/ml) was 116 % of control. For the same compound, the Total acids ([2]; 0.2 mg/ml) was 92 % of control, the Acetic acid ([2]; 0.4 mg/ml) was 79 % of control and the “Acetic:propionic” value ([2]; 0.4 mg/ml) was 65 % of control. For the same compound, the Butyric acid ([2]; 0.4 mg/ml) was 116 % of control, the Propionic acid ([2]; 0.4 mg/ml) was 120 % of control and the Total acids ([2]; 0.4 mg/ml) was 96 % of control. The Acetic acid ([2]; 1.0 mg/ml) was 76 % of control, the “Acetic:propionic” value ([2]; 1.0 mg/ml) was 64 % of control and the Butyric acid ([2]; 1.0 mg/ml) was 112 % of control. For the same compound, the Propionic acid ([2]; 1.0 mg/ml) was 119 % of control, the Total acids ([2]; 1.0 mg/ml) was 92 % of control and the “effect on acetic:propionic ratio (in words)” value ([2]; high concentrate substrate) was “decreasing the acetic:propionic ratio”. For the same compound, the “effect on propionic acid concentration (in words)” value ([2]; high concentrate substrate) was “effective in increasing the propionic acid concentration”, the Acetic acid ([3]; 0.02 mg/ml) was 95 % of control and the “Acetic:propionic” value ([3]; 0.02 mg/ml) was 83 % of control. For the same compound, the Butyric acid ([3]; 0.02 mg/ml) was 106 % of control, the Propionic acid ([3]; 0.02 mg/ml) was 115 % of control and the Total acids ([3]; 0.02 mg/ml) was 101 % of control. For the same compound, the Acetic acid ([3]; 0.04 mg/ml) was 85 % of control, the “Acetic:propionic” value ([3]; 0.04 mg/ml) was 77 % of control and the Butyric acid ([3]; 0.04 mg/ml) was 114 % of control. For the same compound, the Propionic acid ([3]; 0.04 mg/ml) was 111 % of control, the Total acids ([3]; 0.04 mg/ml) was 95 % of control and the Acetic acid ([3]; 0.08 mg/ml) was 95 % of control. The “Acetic:propionic” value ([3]; 0.08 mg/ml) was 84 % of control, the Butyric acid ([3]; 0.08 mg/ml) was 108 % of control and the Propionic acid ([3]; 0.08 mg/ml) was 112 % of control. For the same compound, the Total acids ([3]; 0.08 mg/ml) was 100 % of control, the Acetic acid ([3]; 0.1 mg/ml) was 92 % of control and the “Acetic:propionic” value ([3]; 0.1 mg/ml) was 74 % of control. The Butyric acid ([3]; 0.1 mg/ml) was 116 % of control, the Propionic acid ([3]; 0.1 mg/ml) was 124 % of control and the Total acids ([3]; 0.1 mg/ml) was 102 % of control. For the same compound, the Acetic acid ([3]; 0.2 mg/ml) was 90 % of control, the “Acetic:propionic” value ([3]; 0.2 mg/ml) was 75 % of control and the Butyric acid ([3]; 0.2 mg/ml) was 114 % of control. For the same compound, the Propionic acid ([3]; 0.2 mg/ml) was 120 % of control, the Total acids ([3]; 0.2 mg/ml) was 100 % of control and the Acetic acid ([3]; 0.4 mg/ml) was 83 % of control. The “Acetic:propionic” value ([3]; 0.4 mg/ml) was 73 % of control, the Butyric acid ([3]; 0.4 mg/ml) was 115 % of control and the Propionic acid ([3]; 0.4 mg/ml) was 114 % of control. For the same compound, the Total acids ([3]; 0.4 mg/ml) was 94 % of control, the “effect on acetic to propionic acid ratio (in words)” value ([3]; at all levels (0.02-0.4 mg/ml)) was “decreasing the acetic to propionic acid ratio” and the “effect on propionic acid concentrations (in words)” value ([3]; at all levels (0.02-0.4 mg/ml)) was “effective in increasing the propionic acid concentrations”.

From patent publication US4172148A, “Ruminant feeds containing trichloroethyl esters of essential amino acids” (E. R. Squibb & Sons, Inc., priority 1978, dated 1979)
